Counter-ions that a name gives are not always drawn.

The text below walks through data of patent publication US10173999B2, “Cyclic amine derivative and pharmaceutical use thereof” (Toray Industries, Inc., priority 2015, dated 2019).

Data set [1] deals with mouse partial sciatic nerve ligation model (neuropathic pain). The data set can be described thus: Mouse partial sciatic nerve ligation model (Seltzer model), von Frey test. Particulars: for persistence of analgesic action: oral administration, von Frey test at 1, 2, 3 h. It is filed as in vivo. The protocol: The mouse partial sciatic nerve ligation model was prepared in accordance with the method of Seltzer et al. (Malmberg et al., Pain, vol. 76, p. 215-222, 1998).
Slc: ICR mice (5 weeks old, male; from Japan SLC, Inc.) or Cr1: CD1 (ICR) mice (5 weeks old, male; from CHARLES RIVER LABORATORIES JAPAN, INC.) were anesthetized with sodium pentobarbital (70 mg/kg, intraperitoneal administration). The sciatic nerve at the femoral region of the right hind paw of each mouse was exposed and triply ligated tightly with silk suture of 8-0 (from NATSUME SEISAKUSHO CO., LTD.) under a stereomicroscope so that only half thickness of the nerve was trapped in the ligature. A group of mice thus treated was designated as a partial sciatic nerve ligation group. A group of mice whose sciatic nerve was just exposed and not ligated was designated as a sham surgery group.
Evaluation of neuropathic pain (hereinafter referred to as von Frey test) was performed as follows. Mice were conditioned for at least one hour in an acrylic cage for measurement (from NATSUME SEISAKUSHO CO. LTD. or SHINANO SEISAKUSHO) placed on a wire net. Thereafter, using a filament (from North Coast Medical or neuroscience) which exerted a pressure of 0.16 g, the mice were subjected to mechanical tactile stimulus by applying the filament to the plantar surface of the right hind paw 3 times, each for 3 seconds, with an interval of 3 seconds.
Seven days after the sciatic nerve ligation surgery, the compound of Example 1, 2, 3, 4, 5, 7, 8, 9, 10, 11, 12 or 13 (10 mg/kg for each of the compounds of Example 1, 2, 3, 4, 5, 8, 10 and 13, 0.01 to 1 mg/kg for the compound of Example 7, 0.01 to 10 mg/kg for the compound of Example 9; 0.001 to 0.1 mg/kg for the compound of Example 11; and 0.01 to 1 mg/kg for the compound of Example 12) or pregabalin as a positive control (10 mg/kg; Bosche Scientific) was dissolved in distilled water and orally administered to mice of the partial sciatic nerve ligation group. The groups of the mice in the partial sciatic nerve ligation mouse to which the compound of Example 1, 2, 3, 4, 5, 7, 8, 9, 10, 11, 12 or 13 was administered were designated as a “partial sciatic nerve ligation+the compound of Example 1” group; a “partial sciatic nerve ligation+the compound of Example 2” group; a “partial sciatic nerve ligation+the compound of Example 3” group; a “partial sciatic nerve ligation+the compound of Example 4” group; a “partial sciatic nerve ligation+the compound of Example 5” group; a “partial sciatic nerve ligation+the compound of Example 7” group; a “partial sciatic nerve ligation+the compound of Example 8” group; a “partial sciatic nerve ligation+the compound of Example 9” group; a “partial sciatic nerve ligation+the compound of Example 10” group; a “partial sciatic nerve ligation+the compound of Example 11” group; a “partial sciatic nerve ligation+the compound of Example 12” group; and a “partial sciatic nerve ligation+the compound of Example 13” group, respectively. The partial sciatic nerve ligation mouse group to which pregabalin was administered was designated as a “partial sciatic nerve ligation+pregabalin” group. A group wherein distilled water was orally administered to the mice of the partial sciatic nerve ligation group was designated as a “partial sciatic nerve ligation+distilled water” group. A group wherein distilled water was orally administered to the mice of the sham surgery group was designated as a “sham surgery+distilled water” group.
The von Frey test was carried out before oral administration of a test compound (pre-value), one hour, two hours, and three hours after the oral administration of a test compound.
Slc: ICR mice (5 weeks old, male; Japan SLC, Inc.) were anesthetized with sodium pentobarbital (70 mg/kg, intraperitoneal administration).

Data set [2] has as its system human aortic smooth muscle cells (T/G HA-VSMG). The data set can be described thus: Inducibility of cytoplasmic vacuolation in human aortic smooth muscle cells. It is filed as cell-based. Particulars: Treatment time: 24 hours. The protocol:
As a test compound, the compound of Example 3, 9, 11, 12 or compounds of Comparative Examples 2 to 6 were used. Canine aortic smooth muscle cells (Canine Aortic Smooth Muscle Cells, supply source: Toyobo Co., Ltd.) or human aortic smooth muscle cells of (T/G HA-VSMG, supply source: ATCC) were treated with a test compound (1.0 or 1.2 mmol/L in concentration) for 24 hours or 2 weeks. The cells were stained with HE, immunohistochemically for LAMP-2 or toluidine blue, and thereafter the presence or absence of cytoplasmic vacuolation was determined by using an optical microscope.

In data set [3] the test system is fibromyalgia syndrome model rats. In words: Rat fibromyalgia syndrome model (acidic saline), allodynia by von Frey filament. It is filed as in vivo. Particulars: Day 7, pregabalin 10 mg/kg. The protocol: To prepare a fibromyalgia syndrome model rat (Sluka et al., Journal of Pharmacology and Experimental Therapeutics, vol. 302, p. 1146-1150, 2002; Nagakura et al., Pain, vol. 146, p. 26-33, 2009; Sluka et al., Pain, vol. 146, p. 3-4, 2009), which is generally employed widely in basic research for fibromyalgia syndrome, acidic saline (100 μL) adjusted to pH 4.0 was intramuscularly injected to the gastrocnemius muscle of the right hind paw of Crl: CD(SD) rat (6 to 7 weeks old, male; from CHARLES RIVER LABORATORIES JAPAN, INC.) under continuous inhalation anesthesia with isoflurane, twice (once in each day of Day 1 and Day 6, wherein Day 1 was the date on which the acidic saline was initially administrated). The rats thus prepared were raised in a breeding room controlled at an indoor temperature of 21 to 25° C. and an indoor humidity of 40 to 70% under the conditions of voluntary intake of food and water. In the same manner, rats to which physiological saline in place of acidic saline was intramuscularly injected were raised. The rats thus raised and not afflicted with fibromyalgia syndrome (“physiological saline+distilled water” group in FIG. 13) were also used in the experiment.
Seven days after the initial administration of acidic saline, allodynia in each rat was measured. […] Note that, measurement of allodynia was performed by use of a von Frey filament (from North Coast Medical) in accordance with the method described in a known literature (Chaplan et al., Journal of Neuroscience Methods, vol. 53, p. 55-63, 1994).
The fibromyalgia syndrome model rats thus obtained are divided into groups such that the 50% response threshold (mean value of the right hind paw and the left hind paw) of the individual groups became equal, and a test compound was administered to the fibromyalgia syndrome model rats on Day 7 after the initial administration of acidic saline.
The compound of Example 11 (0.1 to 10 mg/kg) was dissolved in distilled water and then orally administered to fibromyalgia syndrome model rats (“acidic saline+the compound of Example 11” in FIG. 13). Pregabalin serving as a positive control (10 mg/kg; from KEMPROTEC) was dissolved in distilled water and then orally administered (“acidic saline+pregabalin” in FIG. 13). As a control, distilled water was orally administered to fibromyalgia syndrome model rats (“acidic saline+distilled water” in FIG. 13). Furthermore, distilled water was orally administered to rats not afflicted with fibromyalgia syndrome (“physiological saline+distilled water” in FIG. 13). One hour and three hours after the oral administration, allodynia in individual rats was measured to evaluate an analgesic action. At this time, the 50% response threshold value in the measurement of allodynia before oral administration of the test compound on Day 7 after initial administration of acidic saline was defined as the pre-value.
To prepare a fibromyalgia syndrome model rat (Sluka et al., Journal of Pharmacology and Experimental Therapeutics, vol. 302, p. 1146-50, 2002; Nagakura et al., Pain, vol. 146, p. 26-33, 2009; Sluka et al., Pain, vol. 146, p. 3-4, 2009), which is generally employed widely in basic research for fibromyalgia syndrome, acidic saline (100 μL) adjusted to pH 4.0 was intramuscularly injected to the gastrocnemius muscle of the right hind paw of Slc: (SD) rats (6 to 7 weeks old, male; from Japan SLC, Inc.) under continuous inhalation anesthesia with isoflurane, twice (once in each of Day 1 and Day 6, wherein Day 1 was the initial administration date of the acidic saline). The rats thus prepared were raised in a breeding room controlled at an indoor temperature of 21 to 25° C. and an indoor humidity of 40 to 70% under the conditions of voluntary intake of food and water. In the same manner, rats to which physiological saline was intramuscularly injected in place of acidic saline were raised. […]

[4] abbreviates: oral, 7 days after ligation, 1-3 h after dosing, 10 mg/kg (Ex 1,2,3,4,5,8,10,13, pregabalin), 0.01-1 mg/kg (Ex 7,12), 0.01-10 mg/kg (Ex 9), 0.001-0.1 mg/kg (Ex 11), vs ligation+distilled water, Welch or Shirley-Williams test.

Consider `CCN(C)C1CCN(C(=O)CC(O)c2nccn2C)CC1` (centres unmarked) [Example 1, 1-(4-(ethylmethylamino)piperidin-1-yl)-3-hydroxy-3-(1-methyl-1H-imidazol-2-yl)propan-1-one], for which the “analgesic action in von Frey test (total score)” value (“analgesic action … (total score)” for short) in data set [1] (setting [4]) is recorded as “statistically significant analgesic action”.

Take `CCN(CC)C1CCN(C(=O)CC(O)c2nccn2C)CC1` (centres unmarked) [Example 2, 1-(4-(diethylamino)piperidin-1-yl)-3-hydroxy-3-(1-methyl-1H-imidazol-2-yl)propan-1-one]: the “analgesic action … (total score)” value in data set [1] (setting [4]) is “statistically significant analgesic action”.

As for `CN1CCN(C2CCN(C(=O)CC(O)c3nccn3C)CC2)CC1` (centres unmarked) [Example 3, 3-hydroxy-3-(1-methyl-1H-imidazol-2-yl)-1-(4-(4-methylpiperazin-1-yl)piperidin-1-yl)propan-1-one], the “analgesic action … (total score)” value in data set [1] (setting [4]) is reported as “statistically significant analgesic action”. In addition, the “Inducibility of cytoplasmic vacuolation” value in data set [2] (Concentration: 1.2 mmol/L) was “Absent”.

Regarding `CN(C)[C@@H]1CCCN(C(=O)CC(O)c2nccn2C)C1` (some centres unmarked) [Example 4], in data set [1] (setting [4]), the “analgesic action … (total score)” value is “statistically significant analgesic action”.

With `CN(C)[C@@H]1CCN(C(=O)CC(O)c2nccn2C)C1` (stereo partly drawn) [Example 5, 1-((R)-3-(dimethylamino)pyrrolidin-1-yl)-3-hydroxy-3-(1-methyl-1H-imidazol-2-yl)propan-1-one], the “analgesic action … (total score)” value in data set [1] (setting [4]) is “statistically significant analgesic action”.

`CN(C)C1CCN(C(=O)CC(O)c2nccn2C)CC1` (centres unmarked) [Example 7, 1-(4-(dimethylamino)piperidin-1-yl)-3-hydroxy-3-(1-methyl-1H-imidazol-2-yl)propan-1-one hydrochloride]: the “analgesic action … (total score)” value in data set [1] (mouse, in vivo) was “statistically significant analgesic action”. Also, in data set [1], the “persistence of analgesic action” value is “persistence of analgesic action was confirmed”.

Turning to `CCn1ccnc1C(O)CC(=O)N1CCC(N(C)C)CC1` (centres unmarked) [Example 8, 1-(4-(dimethylamino)piperidin-1-yl)-3-(1-ethyl-1H-imidazol-2-yl)-3-hydroxypropan-1-one], the “analgesic action … (total score)” value in data set [1] (setting [4]) was “statistically significant analgesic action”.

On to `CN(C)C1CCN(C(=O)CC(O)c2nccn2CC(F)(F)F)CC1` (centres unmarked) [Example 9, 1-(4-(dimethylamino)piperidin-1-yl)-3-hydroxy-3-(1-(2,2,2-trifluoroethyl)-1H-imidazol-2-yl)propan-1-one], for which, in data set [1], the “persistence of analgesic action” value is “persistence of analgesic action was confirmed”. The “analgesic action … (total score)” value in data set [1] (setting [4]) is “statistically significant analgesic action”. Also, the “Inducibility of cytoplasmic vacuolation” value in data set [2] (Concentration: 1.2 mmol/L) is on record as “Absent”.

In the case of `CN(C)C1CCN(C(=O)CC(O)c2nccn2C(F)F)CC1` (centres unmarked) [Example 10, 3-(1-(difluoromethyl)-1H-imidazol-2-yl)-1-(4-(dimethylamino)piperidin-1-yl)-3-hydroxypropan-1-one], the “analgesic action … (total score)” value in data set [1] (setting [4]) was “statistically significant analgesic action”.

Consider `CC(=O)OC(CC(=O)N1CCC(N(C)C)CC1)c1nccn1C` (centres unmarked) [Example 12, 3-(4-(dimethylamino)piperidin-1-yl)-1-(1-methyl-1H-imidazol-2-yl)-3-oxopropyl acetate], for which the “persistence of analgesic action” value in data set [1] was “persistence of analgesic action was confirmed”. The “analgesic action … (total score)” value in data set [1] (setting [4]) is reported as “statistically significant analgesic action”. Also, the “Inducibility of cytoplasmic vacuolation” value in data set [2] (Concentration: 1.0 mmol/L) was “Absent”.

In the case of `CCCCC(=O)OC(CC(=O)N1CCC(N(C)C)CC1)c1nccn1C` (centres unmarked) [Example 13, 3-(4-(dimethylamino)piperidin-1-yl)-1-(1-methyl-1H-imidazol-2-yl)-3-oxopropylpentanoate], in data set [1] (setting [4]), the “analgesic action … (total score)” value is on record as “statistically significant analgesic action”.

Regarding `CC(C)C[C@H](CN)CC(=O)O` [pregabalin], the “analgesic action … (total score)” value in data set [1] (mouse, in vivo) is “statistically significant analgesic action”. The “allodynia (50% response threshold) vs acidic saline+distilled water group” value in data set [3] (Comparative Example 8: oral, Comparative Example 1 0.1 to 1 mg/kg, 1, 2 and 3 h after dosing) was “statistically significantly improved”; in data set [3] (Example 15: oral, Example 11 0.1 to 10 mg/kg, 1 and 3 h after dosing), “statistically significantly improved”.
